In PMC5672842 (Chemical Science, 2017):
Where two headings read alike, the source gives them in different places.

What was measured:
[1] = molecular target: α-Glucosidase (B. stearoth.); test: 4-nitrophenyl α-D-glucopyranoside hydrolysis, absorbance […] nm; type: biochemical, Geobacillus stearothermophilus; conditions: read-out: 6; pH 6.0, 37 °C, phosphate buffer, 10% DMSO; competitive
[2] = molecular target: β-Glucosidase (P. chrysosp.) (Phanerodontia chrysosporium, UniProt O74203); test: 4-nitrophenyl β-D-glucopyranoside hydrolysis, absorbance […] nm; type: biochemical; conditions: pH 6.0, 37 °C, phosphate buffer, 10% DMSO
α-Glucosidase (A. niger) = molecular target: T1, α-Glucosidase (A. niger) (Aspergillus niger, UniProt P56526); test: 4-nitrophenyl α-D-glucopyranoside hydrolysis, absorbance […] nm; type: biochemical
T1 sequence (P56526 26-985): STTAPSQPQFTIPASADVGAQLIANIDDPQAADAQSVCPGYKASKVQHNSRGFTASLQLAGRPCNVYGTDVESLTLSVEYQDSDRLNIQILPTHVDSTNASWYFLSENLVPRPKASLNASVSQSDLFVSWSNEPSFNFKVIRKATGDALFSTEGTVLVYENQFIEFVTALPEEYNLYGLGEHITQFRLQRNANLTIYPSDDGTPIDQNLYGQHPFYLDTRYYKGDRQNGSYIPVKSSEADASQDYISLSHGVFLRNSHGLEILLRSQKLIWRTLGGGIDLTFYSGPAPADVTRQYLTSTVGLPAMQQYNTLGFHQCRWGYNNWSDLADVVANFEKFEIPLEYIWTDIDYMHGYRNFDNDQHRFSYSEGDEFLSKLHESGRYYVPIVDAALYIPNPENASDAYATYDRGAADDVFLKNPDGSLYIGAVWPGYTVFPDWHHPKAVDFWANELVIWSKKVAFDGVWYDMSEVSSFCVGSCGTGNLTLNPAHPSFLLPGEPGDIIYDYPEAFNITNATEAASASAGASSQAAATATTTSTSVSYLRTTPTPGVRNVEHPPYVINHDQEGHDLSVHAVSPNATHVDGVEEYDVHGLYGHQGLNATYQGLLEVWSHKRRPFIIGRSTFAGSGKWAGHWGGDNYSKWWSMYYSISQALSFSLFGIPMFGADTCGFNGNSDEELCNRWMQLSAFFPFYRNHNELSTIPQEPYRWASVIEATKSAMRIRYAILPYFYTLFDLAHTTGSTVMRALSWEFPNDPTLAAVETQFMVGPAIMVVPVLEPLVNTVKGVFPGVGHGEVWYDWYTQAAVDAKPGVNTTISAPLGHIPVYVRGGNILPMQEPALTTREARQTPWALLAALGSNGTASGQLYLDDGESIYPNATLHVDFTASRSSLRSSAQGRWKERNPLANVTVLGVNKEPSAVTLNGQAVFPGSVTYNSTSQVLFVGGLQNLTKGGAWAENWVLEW

[3] = molecular target: β-Glucosidase (A. oryzae); test: 4-nitrophenyl β-D-glucopyranoside hydrolysis, absorbance […] nm; type: biochemical, Aspergillus oryzae; conditions: read-out: 19; pH 6.0, 37 °C, phosphate buffer, 10% DMSO

β-Glucosidase (P. chrysosp.), sequence (O74203 22-823): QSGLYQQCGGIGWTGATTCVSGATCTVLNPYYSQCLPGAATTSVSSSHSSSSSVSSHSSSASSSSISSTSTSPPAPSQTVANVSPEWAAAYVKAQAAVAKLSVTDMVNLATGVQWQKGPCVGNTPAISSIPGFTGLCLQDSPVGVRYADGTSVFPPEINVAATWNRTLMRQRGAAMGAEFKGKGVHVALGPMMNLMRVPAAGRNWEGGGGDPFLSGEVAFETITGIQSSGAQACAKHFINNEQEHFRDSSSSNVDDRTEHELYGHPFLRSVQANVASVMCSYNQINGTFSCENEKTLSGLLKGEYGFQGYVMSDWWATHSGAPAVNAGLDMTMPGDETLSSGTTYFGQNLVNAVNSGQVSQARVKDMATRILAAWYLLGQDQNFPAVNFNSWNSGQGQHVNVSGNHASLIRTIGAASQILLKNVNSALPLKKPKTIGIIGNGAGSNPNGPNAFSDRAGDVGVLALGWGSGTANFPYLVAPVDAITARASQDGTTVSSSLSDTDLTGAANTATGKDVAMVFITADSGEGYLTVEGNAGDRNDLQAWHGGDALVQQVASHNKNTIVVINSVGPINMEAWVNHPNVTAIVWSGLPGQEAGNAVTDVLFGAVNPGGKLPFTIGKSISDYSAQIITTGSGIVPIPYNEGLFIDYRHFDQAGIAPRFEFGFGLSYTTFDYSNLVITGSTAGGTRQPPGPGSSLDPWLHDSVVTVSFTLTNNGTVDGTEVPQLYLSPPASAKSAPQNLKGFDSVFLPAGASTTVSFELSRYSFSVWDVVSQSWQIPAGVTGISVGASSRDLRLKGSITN

With `OC[C@@H]1[C@@H](O)[C@H](O)[C@@H](O)CN1Cc1c2ccccc2c(Cl)c2ccccc12` [compound 6, N-(10-Chloro-9-anthracenemethyl)-1-deoxynojirimycin] the Ki [1] was 93 µM, the Ki ([2]; read-out: 6, competitive) was 2.7 µM and the Ki (α-Glucosidase (A. niger)) was 1.04 µM.

With `OC[C@@H]1[C@@H](O)[C@H](O)[C@@H](O)CN1CCc1c2ccccc2c(Cl)c2ccccc12` [compound 12, 1-(2-(10-Chloroanthracen-9-yl)ethyl)-1-deoxynojirimycin] the Ki ([2]; read-out: 12) was 0.0062 µM.

Compound `OC[C@@H]1[C@@H](O)[C@H](O)[C@@H](O)CN1CCCc1c2ccccc2c(Cl)c2ccccc12` [compound 15, 1-(3-(10-Chloroanthracen-9-yl)propyl)-1-deoxynojirimycin] has a Ki ([2]; read-out: 15) of 0.0103 µM.

For `O=C1[C@H](O)[C@@H](O)[C@H](O)[C@@H](CO)N1Cc1c2ccccc2c(Cl)c2ccccc12` [compound 19, N-(10-Chloro-9-anthracenemethyl)-D-glucono-δ-lactam], the Ki [3] was 169 µM, the Ki ([2]; read-out: 19) was 24.3 µM and the Ki (α-Glucosidase (A. niger)) was 14.4 µM.
